Values of other authors, collected in patent publication US7875639B2, “Compounds as cannabinoid receptor ligands and uses thereof” (priority 2006, dated 2011).

Legend:
rodent models = rodent models of neuropathic, incisional, and both chronic and acute inflammatory pain
[1] = at fully efficacious doses
mice = details: model for post-menopausal osteoporosis
[2] = test system: CB1I receptor knockout mice; details: CB1 receptor knockout mice
[3] = test system: apolipoprotein F knockout mice; details: low doses
animal models = animal models of acute thermal pain, persistent pain, inflammatory pain and neuropathic pain
rat = rat formalin model of persistent pain
microglia = details: in vitro

Compound: COc1ccc2c(c1)c(CCN1CCOCC1)c(C)n2C(=O)c1cccc(Cl)c1Cl [GW405833]
- efficacy in pain models (rodent models): is efficacious
- typical CB1 receptor-mediated CNS side effects [1]: devoid of typical CB1 receptor-medicated CNS side effects

Compound: SR144528
- osteoclast activity (osteoclast): inhibit osteoclast activity
- ovariectomy-induced bone loss (mice): reverse ovariectomy-induced bone loss

Compound: (−)-Δ^9-Tetrahydrocannabinol [Δ^9-THC]
- analgesic efficacy [2]: retains some analgesic efficacy
- progression of atherosclerotic lesions [3]: slowed the progression of atherosclerotic lesions

Compound: CN1CCCCC1Cn1cc(C(=O)c2cc([N+](=O)[O-])ccc2I)c2ccccc21 (stereo not shown) [AM-1241]
- analgesic efficacy (animal models): exhibits robust analgesic efficacy
- typical CB1 receptor-mediated CNS side effects [1]: devoid of typical CB1 receptor-medicated CNS side effects

Compound: CCCCCCC(C)(C)c1cc(OC)c([C@@H]2C=C(CO)[C@@H]3C[C@H]2C3(C)C)c(OC)c1 [HU-308]
- antinociceptive response (rat): elicits an antinociceptive response

Compound: CCCC(C)(C)c1ccc2c(c1)OC(C)(C)[C@@H]1CC=C(C)C[C@@H]21 [JWH-133]
- β-amyloid-induced microglial activation and neurotoxicity (microglia): abrogated β-amyloid-induced microglial activation and neurotoxicity
